The results in this text go back to patent publication US9084826B2, “Fatty acid conjugates of statin and FXR agonists; compositions and method of uses” (Catabasis Pharmaceuticals, Inc., priority 2012, dated 2015).

For the assay, the system named is PCSK9 secreted from HepG2 cells. Kind of assay: PCSK9 secretion assay in HepG2 cells (PCSK9 ELISA). Type of assay: cell-based. Conditions: 16 hours incubation. As for the experimental part:
HepG2 cells (from ATCC, Catalog no. HB-8065) were maintained in DMEM (Invitrogen) supplemented with 10% fetal bovine serum (Invitrogen). The day prior to the PCSK9 assay, cells were seeded in 96-well collagen coated plates at 25,000 cells/well.
The compounds of the invention were stored at −20° C. until used. The test article compound was dissolved in 100% ethanol to a 50 mM stock solution. This was then diluted in FBS to a final concentration of 1 mM. This solution was placed in a sonicating water bath for 30 minutes. Subsequent dilutions were then made in FBS supplemented with an equivalent volume of ethanol and mixed by vortexing.
HepG2 cells were seeded onto a collagen coated 96-well plate (Becton Dickinson, Catalog no. 35-4407) the day prior to the assay, as described above. The next day, the cell medium was removed, washed once with […] serum free DMEM to remove any residual PCSK9, and replaced with […] of serum free DMEM. Ten microliters of each compound concentration prepared in FBS was then added. Each concentration of compound was tested in triplicate. The compound was incubated with the cells overnight for 16 hours. Following this incubation, 10 µL of AlamarBlue was added to each well and cells incubated for another 2 hours. The plates were then removed and AlamarBlue fluorescence was measured (excitation, 550 nm and […]) to assess cell viability. Cell culture supernatant was then diluted […] 1× RD5P Calibrator Diluent and PCSK9 ELISA was then performed with […] of this diluted sample, as per the manufacturer's instructions. The ELISA was measured on a Victor X5 multilabel plate reader (PerkinElmer) at an absorbance of 450 nm with background correction measured at 550 nm (The PCSK9 Elisa kits can be purchased from R&D System, Catalog no. DPC900).
In general terms: ELISA stands for enzyme-linked immunosorbent assay.

[1] abbreviates: two tested concentrations (6.25 and 25 μM).

Turning to `CC/C=C\C/C=C\C/C=C\C/C=C\C/C=C\CCCC(=O)NCCNC(=O)C[C@H](O)C[C@H](O)/C=C/c1c(-c2ccc(F)cc2)nc(N(C)S(C)(=O)=O)nc1C(C)C` [Compound 1-43, (5Z,8Z,11Z,14Z,17Z)—N-(2-((3R,5S,E)-7-(4-(4-fluorophenyl)-6-isopropyl-2-(N-methylmethylsulfonamido)pyrimidin-5-yl)-3,5-dihydroxyhept-6-enamido)ethyl)icosa-5,8,11,14,17-pentaenamide], under setting [1], the “level of PCSK9 secreted from HepG2 cells” value is given as “did not cause an increase”.

With `CC/C=C\C/C=C\C/C=C\C/C=C\C/C=C\C/C=C\CCC(=O)NCCNC(=O)C[C@H](O)C[C@@H](O)CC[C@@H]1C2C(=C[C@H](C)CC2OC(=O)C(C)(C)CC)C=C[C@@H]1C` (stereo partly drawn) [Compound I-1, (3R,7S,8S)-8-((3S,5R)-7-((2-((4Z,7Z,10Z,13Z,16Z,19Z)-docosa-4,7,10,13,16,19-hexaenamido)ethyl)amino)-3,5-dihydroxy-7-oxoheptyl)-3,7-dimethyl-1,2,3,7,8,8a-hexahydronaphthalen-1-yl 2,2-dimethylbutanoate], the “level of PCSK9 secreted from HepG2 cells” value by setting is: (6.25 μM, FIG. 1) “no significant change”; (25 μM, FIG. 1) “decrease”.

As for `CC/C=C\C/C=C\C/C=C\C/C=C\C/C=C\C/C=C\CCC(=O)NCCNC(=O)C[C@H](O)C[C@H](O)CCn1c(-c2ccc(F)cc2)c(-c2ccccc2)c(C(=O)Nc2ccccc2)c1C(C)C` [Compound I-22, 1-((3R,5R)-7-(2-(4Z,7Z,10Z,13Z,16Z,19Z)-docosa-4,7,10,13,16,19-hexaenamidoethylamino)-3,5-dihydroxy-7-oxoheptyl)-5-(4-fluorophenyl)-2-isopropyl-N,4-diphenyl-1H-pyrrole-3-carboxamide], the “level of PCSK9 secreted from HepG2 cells” value under setting [1] is on record as “no significant change”.

On to `CC(C)c1c(C(=O)Nc2ccccc2)c(-c2ccccc2)c(-c2ccc(F)cc2)n1CC[C@@H](O)C[C@@H](O)CC(=O)O` [atorvastatin, reference compound], for which, under “1.25, 2.5, 5.0 and 10.0 μM, compared to the control, FIG. 1”, the “level of PCSK9 secretion from HepG2 cells” value was “significant increase”.

Take `CC(C)c1nc(N(C)S(C)(=O)=O)nc(-c2ccc(F)cc2)c1/C=C/[C@@H](O)C[C@@H](O)CC(=O)O` [rosuvastatin, reference compound]: the “level of PCSK9 secreted from HepG2 cells” value under setting [1] was “increase”.
